The target of assay [1] is T1, ENPP-1 (Homo sapiens, UniProt P22413).
T1 construct: purchased Biovendor RD172124100
T1 sequence (P22413 1-925): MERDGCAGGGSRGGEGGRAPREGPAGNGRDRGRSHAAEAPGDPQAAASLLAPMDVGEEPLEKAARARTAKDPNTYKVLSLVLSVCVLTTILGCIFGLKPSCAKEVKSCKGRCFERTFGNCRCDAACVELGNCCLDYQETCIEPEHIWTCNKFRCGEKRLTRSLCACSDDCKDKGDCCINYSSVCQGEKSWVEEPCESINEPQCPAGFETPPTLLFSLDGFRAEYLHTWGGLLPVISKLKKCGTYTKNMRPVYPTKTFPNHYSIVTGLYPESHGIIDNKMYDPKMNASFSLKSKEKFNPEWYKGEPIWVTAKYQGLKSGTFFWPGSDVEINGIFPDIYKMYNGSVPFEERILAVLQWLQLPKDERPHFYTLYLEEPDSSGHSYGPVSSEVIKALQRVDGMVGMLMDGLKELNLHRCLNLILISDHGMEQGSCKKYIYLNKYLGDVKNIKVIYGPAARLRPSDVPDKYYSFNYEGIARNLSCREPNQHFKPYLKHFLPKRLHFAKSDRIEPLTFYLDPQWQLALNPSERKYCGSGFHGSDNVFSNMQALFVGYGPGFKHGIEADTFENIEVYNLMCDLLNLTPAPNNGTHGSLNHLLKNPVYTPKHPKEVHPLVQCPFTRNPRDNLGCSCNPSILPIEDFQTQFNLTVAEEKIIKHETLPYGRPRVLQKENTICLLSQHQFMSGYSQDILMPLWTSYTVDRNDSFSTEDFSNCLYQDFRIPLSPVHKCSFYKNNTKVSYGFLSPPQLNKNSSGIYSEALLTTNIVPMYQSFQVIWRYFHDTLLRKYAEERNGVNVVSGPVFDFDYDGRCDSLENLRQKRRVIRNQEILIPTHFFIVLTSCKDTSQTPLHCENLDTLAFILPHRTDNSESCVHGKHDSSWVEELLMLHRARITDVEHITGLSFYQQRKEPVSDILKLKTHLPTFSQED
The assay can be described thus: ENPP-1 enzyme assay with pNP-TMP substrate. Type of assay: biochemical. Particulars: 12.5 ng ENPP-1, 720 μM substrate pNP-TMP, pH 9.0, 37° C., 60 minutes, absorbance 405 nm; average IC50. As to the method: In order to measure the ENPP-1 inhibitory activity of the compounds according to the present disclosure, the following tests were performed.
ENPP-1 hydrolyzes a variety of substrates, including phosphodiester bonds of nucleotides and nucleotide sugars and pyrophosphate bonds of nucleotides and nucleotide sugars. p-Nitrophenyl 5′-thymidine monophosphate (p-Nph-5′-TMP) is an artificial substrate for 5′-adenosine monophosphate (AMP), which is hydrolyzed by the human recombinant ENPP-1 enzyme. In the above reaction, ENPP-1 enzymatic activity is monitored through the formation of yellow p-nitrophenolate, which absorbs at 405 nm.
First, the reaction mixture contains 100 mM Tris-HCl (pH 9.0), 150 mM NaCl, […], and 1% DMSO. Serially diluted ENPP-1 inhibitors (test compound concentrations ranging from 10 μM to 0.5 nM) are reacted with 12.5 ng of ENPP-1 (Biovendor, catalog number RD172124100) and 720 μM substrate pNP-TMP at 37° C. for 60 minutes. All assays include a DMSO control without ENPP-1 inhibitor that gives maximum absorbance.
After 60 minutes of this reaction, the […] is measured using an Epoch™ Microplate Spectrophotometer (BioTek Instruments Inc.). Inhibition (%) is calculated using the following formula: Sample OD405 nm/Max OD405 nm×100%. % residual ENPP-1 enzyme activity versus IC50 values for ENPP-1 inhibitor concentrations were determined by fitting inhibition curves using the 4-parameter method of GraphPad Prism® software [GraphPad version 9.3.1 for Windows, GraphPad Software, La Jolla California USA, www.graphpad.com].

The target in assay [2] is T1, ENPP-1. Nature of the assay: ENPP-1 enzyme assay with cGAMP substrate. It is filed as biochemical. The conditions noted are these: 200 pM ENPP-1, 10 μM substrate 2′3′-cGAMP, pH 7.4, 37° C., 30 minutes, Transcreener AMP2/GMP2 kit; average IC50. As to the method:
2′3′-cGAMP is a natural substrate specifically hydrolyzed by ENPP-1, and produces 5′-adenosine monophosphate (AMP) and 5′-guanosine monophosphate (GMP). AMP and GMP produced from the reaction are monitored for ENPP-1 enzyme activity through an AMP^2/GMP^2 ENPP-1 Assay kit (Bellbrook Labs, catalog number 3015).
First, the reaction mixture contains 25 mM Tris-HCl (pH 7.4), 5 mM MgCl2, 0.01% Brij-35, and 1% DMSO. Serially diluted ENPP-1 inhibitors (test compound concentrations ranging from 10 μM to 0.5 nM) are reacted with 200 pM ENPP-1 (Biovendor, catalog number RD172124100) and 10 μM substrate 2′3′-cGAMP at 37° C. for 30 minutes. All assays include a DMSO control without ENPP-1 inhibitor that provides maximal AMP and GMP production. After 30 minutes of this reaction, AMP and GMP production is detected as a measure of ENPP-1 enzymatic activity using the Transcreener® AMP^2/GMP^2 ENPP-1 Assay kit. The detection reagent is a reagent containing 16 nM AMP^2/GMP^2 Antibody-Tb, 25 mM Tris-HCl and 60.1 nM AMP/GMP HiLyte647 Tracer, which is added by 5 μl, mixed well, and incubated at 25° C. for 2 hours.
The […] signal is measured using a SPARK Cyto plate reader (Tecan). Inhibition (%) is calculated using the following formula: (Max 615:665 ratio-615:665 ratio)/Max 615:665 ratio×100%. % residual ENPP-1 enzyme activity versus IC50 values for ENPP-1 inhibitor concentrations were determined by fitting inhibition curves using the 4-parameter method of GraphPad Prism® software [GraphPad version 9.3.1 for Windows, GraphPad Software, La Jolla California USA, www.graphpad.com].

The values that follow come from US20250367173A1, “ECTONUCLEOTIDE PYROPHOSPHATASE-PHOSPHODIESTERASE-1 INHIBITORS AND PHARMACEUTICAL COMPOSITIONS COMPRISING THE SAME” (LigaChem Biosciences Inc., priority 2022, published 2025).

In the case of `COc1ccc2c(c1)c1c(n2Cc2ccc(S(N)(=O)=O)cc2)CCNC1` [Compound 36, 4-((8-methoxy-1,2,3,4-tetrahydro-5H-pyrido[4,3-b]indol-5-yl)methyl)benzenesulfonamide], the IC50 against ENPP-1 [1] was 1 to 10 µM; against ENPP-1 [2], greater than 10 µM.
On to `COc1ccc2c3c(=O)[nH]ncc3n(Cc3ccc(S(N)(=O)=O)cc3)c2c1` [Compound 45, 4-((7-methoxy-1-oxo-1,2-dihydro-5H-pyridazino[4,5-b]indol-5-yl)methyl)benzene sulfonamide], for which the half-maximal inhibitory concentration (IC50) on ENPP-1 [1] and against ENPP-1 [2] was less than 1 µM each time.
As to `Cc1ccc2c(c1)c1ncccc1n2Cc1ccc(S(C)(=N)=O)cc1` (stereo not drawn) [Compound 23, imino(methyl) (4-((8-methyl-5H-pyrido[3,2-b]indol-5-yl)methyl)phenyl)-l6-sulfanone], the IC50 against ENPP-1 [1] and at ENPP-1 [2] was less than 1 µM each time.
Take `CCOc1ccc2c(c1)c1ncccc1n2Cc1ccc(S(C)(=N)=O)cc1` (stereo not drawn) [Compound 24, (4-((8-ethoxy-5H-pyrido[3,2-b]indol-5-yl)methyl)phenyl)(imino)(methyl)-l6-sulfanone]: the concentration for half-maximal inhibition (IC50) against ENPP-1 [1] is 1 to 10 µM; against ENPP-1 [2], less than 1 µM.
As to `COc1ccc2c(c1)c1ncccc1n2CCc1ccc(S(N)(=O)=O)cc1` [Compound 9, 4-(2-(8-methoxy-5H-pyrido[3,2-b]indol-5-yl)ethyl)benzenesulfonamide], the IC50 was less than 1 µM against ENPP-1 [1] and greater than 10 µM at ENPP-1 [2].
The corresponding values for `COc1ccc2c3cncnc3n(Cc3ccc(S(N)(=O)=O)cc3)c2c1` [Compound 48, 4-((7-methoxy-9H-pyrimido[4,5-b]indol-9-yl)methyl)benzenesulfonamide] are less than 1 µM and 1 to 10 µM.
Take `COc1cc2c3ncccc3n(Cc3ccc(S(N)(=O)=O)cc3)c2cc1F` [Compound 29, 4-((7-fluoro-8-methoxy-5H-pyrido[3,2-b]indol-5-yl)methyl)benzenesulfonamide]: the half-inhibitory concentration (IC50) at ENPP-1 [1] and at ENPP-1 [2] was less than 1 µM each time.
With `COc1ccc2c(c1)c1ncccc1n2Cc1ccc(S(C)(=N)=O)c(F)c1` (stereo not drawn) [Compound 20, (2-fluoro-4-((8-methoxy-5H-pyrido[3,2-b]indol-5-yl)methyl)phenyl)(imino)(methyl)-l6-sulfanone], the IC50 at ENPP-1 [1] and against ENPP-1 [2] was less than 1 µM in each case.
For the molecule `COc1ccc2c(c1)c1ncccc1n2Cc1ccc(C(F)(F)P(=O)(O)O)cc1` [Compound 58, (difluoro (4-((8-methoxy-5H-pyrido[3,2-b]indol-5-yl)methyl)phenyl)methyl)phosphonic acid], the half-inhibitory concentration (IC50) at ENPP-1 [1] is less than 1 µM; on ENPP-1 [2], 1 to 10 µM.
Turning to `COc1cc2c(cc1F)c1ncccc1n2Cc1ccc(S(C)(=N)=O)cc1` (stereo not drawn) [Compound 32, (4-((8-fluoro-7-methoxy-5H-pyrido[3,2-b]indol-5-yl)methyl)phenyl)(imino)(methyl)-l6-sulfanone], the concentration for half-maximal inhibition (IC50) on ENPP-1 [1] and on ENPP-1 [2] was less than 1 µM in each case.
Take `COc1ccc2c3c(n(Cc4ccc(S(N)(=O)=O)cc4)c2c1)CCNC3` [Compound 35, 4-((7-methoxy-1,2,3,4-tetrahydro-5H-pyrido[4,3-b]indol-5-yl)methyl)benzenesulfonamide]: the figures for the concentration for half-maximal inhibition (IC50) at ENPP-1 [1] and against ENPP-1 [2] were less than 1 µM and 1 to 10 µM, respectively.
As to `COc1ccc2c(c1)c1ncccc1n2Cc1ccc(NS(N)(=O)=O)cc1` [Compound 8, N-(4-((8-methoxy-5H-pyrido[3,2-b]indol-5-yl)methyl)phenyl) sulfamide], the IC50 at ENPP-1 [1] and on ENPP-1 [2] was less than 1 µM throughout.
For `COc1ccc2c(c1)c1ncncc1n2Cc1ccc(S(N)(=O)=O)cc1` [Compound 51, 4-((8-methoxy-5H-pyrimido[5,4-b]indol-5-yl)methyl)benzenesulfonamide], the IC50 at ENPP-1 [1] and against ENPP-1 [2] was less than 1 µM in each case.
As for `COc1cc2c3ncccc3n(Cc3ccc(S(N)(=O)=O)cc3)c2cc1OC` [Compound 28, 4-((7,8-dimethoxy-5H-pyrido[3,2-b]indol-5-yl)methyl)benzenesulfonamide], the 50% inhibitory concentration (IC50) against ENPP-1 [1] and at ENPP-1 [2] was less than 1 µM throughout.
Regarding `COc1cc(C)c2c(c1)c1ncccc1n2Cc1ccc(S(N)(=O)=O)cc1` [Compound 26, 4-((8-methoxy-6-methyl-5H-pyrido[3,2-b]indol-5-yl)methyl)benzenesulfonamide], the IC50 at ENPP-1 [1] and on ENPP-1 [2] was less than 1 µM throughout.
As for `COc1cc2c3ncccc3n(Cc3ccc(S(C)(=N)=O)cc3F)c2cc1F` (stereo not drawn) [Compound 31, (3-fluoro-4-((7-fluoro-8-methoxy-5H-pyrido[3,2-b]indol-5-yl)methyl)phenyl)(imino)(methyl)-l6-sulfanone], the half-inhibitory concentration (IC50) against ENPP-1 [1] and against ENPP-1 [2] was less than 1 µM each time.
For the molecule `COc1ccc2c3c(n(Cc4ccc(S(N)(=O)=O)cc4)c2c1)CCNC3=O` [Compound 42, 4-((7-methoxy-1-oxo-1,2,3,4-tetrahydro-5H-pyrido[4,3-b]indol-5-yl)methyl)benzene sulfonamide], the concentration for half-maximal inhibition (IC50) at ENPP-1 [1] and against ENPP-1 [2] was less than 1 µM each time.
With `COc1ccc2c(c1)c1ncccc1n2Cc1ccc(P(=O)(O)O)cc1` [Compound 13, (4-((8-methoxy-5H-pyrido[3,2-b]indol-5-yl)methyl)phenyl)phosphonic acid], the IC50 at ENPP-1 [1] and on ENPP-1 [2] was less than 1 µM in each case.
As for `COc1ccc2c(c1)c1ccncc1n2Cc1ccc(S(C)(=N)=O)cc1` (stereo not drawn) [Compound 3, imino (4-((6-methoxy-9H-pyrido[3,4-b]indol-9-yl)methyl)phenyl)(methyl)-l6-sulfanone], the 50% inhibitory concentration (IC50) at ENPP-1 [1] and on ENPP-1 [2] was less than 1 µM in each case.
In the case of `COc1ccc2c(c1)c1ncccc1n2Cc1ccc(S(C)(=N)=O)cc1` (single isomer, unassigned) [Compound 10a, imino (4-((8-methoxy-5H-pyrido[3,2-b]indol-5-yl)methyl)phenyl)(methyl)-l6-sulfanone], the concentration for half-maximal inhibition (IC50) against ENPP-1 [1] and on ENPP-1 [2] was less than 1 µM in each case.
As for `COc1ccc2c3c(n(Cc4ccc(S(N)(=O)=O)cc4)c2c1)CCCN3` [Compound 37, 4-((7-methoxy-1,2,3,4-tetrahydro-5H-pyrido[3,2-b]indol-5-yl)methyl)benzenesulfonamide], the IC50 against ENPP-1 [1] was less than 1 µM; at ENPP-1 [2], greater than 10 µM.

In general, IC50 refers to the midpoint of a concentration-inhibition curve.
